Our source for the activation values is patent US8329707B2, “Substituted pyrazine compounds” (Astellas Pharma Inc., priority 2008, dated 2012).

In the assay the target is T1, recombinant human hepatic type GK (GST-hGK2) (Homo sapiens, UniProt P35557).
T1 construct: made in house; host or cells: Escherichia coli BL21
T1 sequence (P35557 1-466 isoform P35557-2): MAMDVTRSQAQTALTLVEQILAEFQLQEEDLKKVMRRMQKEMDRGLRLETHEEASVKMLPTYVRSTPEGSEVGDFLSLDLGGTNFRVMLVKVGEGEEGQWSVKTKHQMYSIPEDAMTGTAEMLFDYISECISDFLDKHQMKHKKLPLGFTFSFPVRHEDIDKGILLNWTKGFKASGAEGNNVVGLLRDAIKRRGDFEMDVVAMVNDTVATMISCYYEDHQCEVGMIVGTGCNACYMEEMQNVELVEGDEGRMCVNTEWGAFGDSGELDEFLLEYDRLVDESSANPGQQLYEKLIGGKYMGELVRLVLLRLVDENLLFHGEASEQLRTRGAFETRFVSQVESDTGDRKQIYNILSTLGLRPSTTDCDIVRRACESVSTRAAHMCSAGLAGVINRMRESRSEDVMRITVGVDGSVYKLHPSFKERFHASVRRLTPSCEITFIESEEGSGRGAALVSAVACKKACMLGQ
In words: Measurement of glucokinase (GK) activation. It counts as biochemical. Particulars: 10 min, read-out: GK activation (%). The method, then:
The present test was carried out in accordance with the method described in Science 301: 370-373, 2003 and with partial modification thereof. Hereinafter, the summary is described.
First, the cloning of GK (GenBank No. AK122876) was carried out. 5′-[…]-3′(SEQ ID NO: 1) and 5′-[…]-3′(SEQ ID NO: 2) were used as primers, and pME18S-FL3-Glucokinase isoform 2 was used as a template to carry out PCR. The obtained reaction product was TA-cloned into a pGEM-T easy vector, digested with EcoRI and XhoI, and introduced to the pGEX-5X-1 vector digested in the same manner by ligation. By using this plasmid DNA (pGEX-human Glucokinase 2), a recombinant human hepatic type GK (GST-hGK2) fused with GST (Glutathione S-transferase) was expressed in Escherichia coli (BL21 strain) and purified by Glutathione Sepharose.
The reaction of GK was carried out at 27° C. on a 96-well plate. First, 1 μL of the test compound (final concentration 10 μM) that has been diluted with dimethylsulfoxide (DMSO) was added to 89 μL of an enzyme mixed liquid (all final concentration 25 mM HEPES pH 7.4, 25 mM KCl, 2 mM MgCl2, 1 mM ATP, 0.1% BSA, 1 mM DTT, 1 mM NADP (nicotinamide adenine dinucleotide phosphate), 2.5 U/ml glucose-6-phosphate dehydrogenase, GST-hGK2 adjusted to ΔODCont of about 0.05 to 0.10). Subsequently, 10 μL of a substrate solution (final concentration 5 mM glucose) was added to start the reaction. In order to quantify a final product NADPH, an absorbance at a wavelength of 340 nm was measured, and the GK activation (%) of the test compound was calculated from the increase of absorbance during the first 10 minutes (ΔOD) after initiation of the reaction. GK activation (%)=[(ΔODTest)−(ΔODCont)]/(ΔODCont)×100
ΔODTest: ΔOD at test compound

The mark [1] stands for this setting: test compound final concentration 10 μM, 5 mM glucose, 27° C., increase of absorbance at 340 nm during first 10 minutes vs DMSO.

Counter-ions that a name gives are not always drawn. Like-named read-outs stand apart in the source and are kept apart here.

On to `O=C(Nc1ccn(CC(O)CO)n1)/C(=C/C1CCCC1)c1ccc(S(=O)(=O)C2CC2)c(C2CC2)c1` (stereo in doubt) [Example 3, (2E)-3-cyclopentyl-2-[3-cyclopropyl-4-(cyclopropylsulfonyl)phenyl]-N-{1-[(2S)-2,3-dihydroxypropyl]-1H-pyrazol-3-yl}acrylamide], for which the activation at 10 µM under setting [1] was 328%.
Still for that read-out and setting: to `O=C(Nc1ccn(CCCO)n1)/C(=C/C1CCCC1)c1ccc(S(=O)(=O)C2CC2)c(C2CC2)c1` [Example 1, (2E)-3-cyclopentyl-2-[3-cyclopropyl-4-(cyclopropylsulfonyl)phenyl]-N-[1-(3-hydroxypropyl)-1H-pyrazol-3-yl]acrylamide] belongs 330%.
Still for that read-out and setting: the figure for `Cn1ccc(NC(=O)/C(=C/C2CCOCC2)c2ccc(S(=O)(=O)C3CC3)c(C3CC3)c2)n1` [Example 2, (2E)-2-[3-cyclopropyl-4-(cyclopropylsulfonyl)phenyl]-N-(1-methyl-1H-pyrazol-3-yl)-3-(tetrahydro-2H-pyran-4-yl)acrylamide] is 365%.
Same read-out and setting: the figure for `O=C1CC[C@H](/C=C(/C(=O)Nc2ccc(C(=O)O)cn2)c2ccc(S(=O)(=O)C3CC3)c(C3CC3)c2)C1` [Example 5, 6-({(2E)-2-[3-cyclopropyl-4-(cyclopropylsulfonyl)phenyl]-3-[(1S)-3-oxocyclopentyl]prop-2-enoyl}amino)nicotinic acid monohydrochloride] is 410%; for `O=C1CCC(/C=C(/C(=O)Nc2cnc(CO)cn2)c2ccc(S(=O)(=O)C3CC3)c(C3CC3)c2)C1` (stereo not shown) [Example 6, (2E)-2-[3-cyclopropyl-4-(cyclopropylsulfonyl)phenyl]-N-[5-(hydroxymethyl)pyrazin-2-yl]-3-(3-oxocyclopentyl)acrylamide] it is 336%; for `O=C1CC[C@H](/C=C(/C(=O)Nc2nc3ccc(OCCO)nc3s2)c2ccc(S(=O)(=O)C3CC3)c(C3CC3)c2)C1` [Example 7, (2E)-2-[3-cyclopropyl-4-(cyclopropylsulfonyl)phenyl]-N-[5-(2-hydroxyethoxy)[1,3]thiazolo[5,4-b]pyridin-2-yl]-3-[(1S)-3-oxocyclopentyl]acrylamide] it is 418%.
For the compound `Cn1ccc(NC(=O)/C(=C/C2CCCC2)c2ccc(S(=O)(=O)C3CC3)c(C3CC3)c2)n1` [Example 24], the activation at 10 µM under setting [1] worked out at 345%.
On the same count and under the same terms, to `Cn1ccc(NC(=O)/C(=C/C2CCOC2)c2ccc(S(=O)(=O)C3CC3)c(C3CC3)c2)n1` (stereo not shown) [Example 25] belongs 334%; to `O=C(Nc1ncc(Cl)s1)/C(=C/C1CCOCC1)c1ccc(S(=O)(=O)C2CC2)c(C2CC2)c1` [Example 26], 231%; to `O=C(Nc1ncc(Cl)s1)/C(=C/C1CCOC1)c1ccc(S(=O)(=O)C2CC2)c(C2CC2)c1` (stereo not shown) [Example 27], 211%.
For the compound `Cc1cnc(NC(=O)/C(=C/C2CCOCC2)c2ccc(S(=O)(=O)C3CC3)c(C3CC3)c2)cn1` [Example 28], the activation at 10 µM under setting [1] is 314%.
Still for that read-out and setting: the figure for `Cc1cnc(NC(=O)/C(=C/C2CCOC2)c2ccc(S(=O)(=O)C3CC3)c(C3CC3)c2)cn1` (stereo not shown) [Example 29] is 300%; for `O=C(Nc1ccn(C[C@H](O)CO)n1)/C(=C/C1CCCC1)c1ccc(S(=O)(=O)C2CC2)c(C2CC2)c1` [Example 30] it is 309%; for `Cc1cnc(NC(=O)/C(=C/C2CCC(=O)C2)c2ccc(S(=O)(=O)C3CC3)c(C3CC3)c2)cn1` (stereo not shown) [Example 31] it is 387%.
The same measure, in the same setting: to `Cn1ccc(NC(=O)/C(=C/C2CCC(=O)C2)c2ccc(S(=O)(=O)C3CC3)c(C3CC3)c2)n1` (stereo not shown) [Example 32] belongs 410%; to `O=C1CCC(/C=C(/C(=O)Nc2ncc(Cl)s2)c2ccc(S(=O)(=O)C3CC3)c(C3CC3)c2)C1` (stereo not shown) [Example 33], 375%.
The same measure, in the same setting: to `Cc1cnc(NC(=O)/C(=C/[C@@H]2CCC(=O)C2)c2ccc(S(=O)(=O)C3CC3)c(C3CC3)c2)cn1` [Example 34] belongs 245%; to `O=C1CC[C@@H](/C=C(/C(=O)Nc2ncc(Cl)s2)c2ccc(S(=O)(=O)C3CC3)c(C3CC3)c2)C1` [Example 35], 265%; to `Cn1ccc(NC(=O)/C(=C/[C@@H]2CCC(=O)C2)c2ccc(S(=O)(=O)C3CC3)c(C3CC3)c2)n1` [Example 37], 260%.
In the case of `O=C1CCC(/C=C(/C(=O)Nc2cnc(C(O)CO)cn2)c2ccc(S(=O)(=O)C3CC3)c(C3CC3)c2)C1` (stereo not shown) [Example 38], the activation at 10 µM is 386%.
As to `CC(=O)c1cnc(NC(=O)/C(=C/[C@H]2CCC(=O)C2)c2ccc(S(=O)(=O)C3CC3)c(C3CC3)c2)s1` [Example 39], the activation at 10 µM under setting [1] amounted to 286%.
On the same count and under the same terms, to `O=C1CC[C@H](/C=C(/C(=O)Nc2nccs2)c2ccc(S(=O)(=O)C3CC3)c(C3CC3)c2)C1` [Example 40] belongs 397%; to `O=C1CC[C@H](/C=C(/C(=O)Nc2ncc(Cl)s2)c2ccc(S(=O)(=O)C3CC3)c(C3CC3)c2)C1` [Example 41], 362%.
On the same count and under the same terms, to `O=C1CC[C@H](/C=C(/C(=O)Nc2nc([C@H](O)CO)cs2)c2ccc(S(=O)(=O)C3CC3)c(C3CC3)c2)C1` [Example 43] belongs 391%.
Regarding `CC(=O)c1csc(NC(=O)/C(=C/[C@H]2CCC(=O)C2)c2ccc(S(=O)(=O)C3CC3)c(C3CC3)c2)n1` [Example 44], the activation at 10 µM turned out to be 389%.
`Cc1ccc(NC(=O)/C(=C/[C@H]2CCC(=O)C2)c2ccc(S(=O)(=O)C3CC3)c(C3CC3)c2)nc1` [Example 45]: the activation at 10 µM under setting [1] came to 377%.
On the same count and under the same terms, to `O=C1CC[C@H](/C=C(/C(=O)Nc2nc(CF)cs2)c2ccc(S(=O)(=O)C3CC3)c(C3CC3)c2)C1` [Example 46] belongs 392%; to `O=C1CC[C@H](/C=C(/C(=O)Nc2ncc(F)s2)c2ccc(S(=O)(=O)C3CC3)c(C3CC3)c2)C1` [Example 47], 297%.
On the same count and under the same terms, the figure for `Cc1cnc(NC(=O)/C(=C/[C@H]2CCC(=O)C2)c2ccc(S(=O)(=O)C3CC3)c(C3CC3)c2)s1` [Example 48] is 257%; for `CC(=O)c1cnc(NC(=O)[C@H](C[C@H]2CCC(=O)C2)c2ccc(S(=O)(=O)C3CC3)c(C3CC3)c2)cn1` [Example 74] it is 337%.
On to `CC(C)(O)c1cnc(NC(=O)[C@H](C[C@H]2CCC(=O)C2)c2ccc(S(=O)(=O)C3CC3)c(C3CC3)c2)cn1` [Example 75], for which the activation at 10 µM under setting [1] was found to be 307%.
The same measure, in the same setting: the figure for `Cc1ccc(NC(=O)[C@H](C[C@H]2CCC(O)C2)c2ccc(S(=O)(=O)C3CC3)c(C3CC3)c2)nc1` (stereo partly shown) [Example 81] is 211%; for `Cn1ccc(NC(=O)[C@H](C[C@H]2CCC(O)C2)c2ccc(S(=O)(=O)C3CC3)c(C3CC3)c2)n1` (stereo partly shown) [Example 85] it is 257%; for `O=C1CC[C@H](C[C@@H](C(=O)Nc2cnc(CCO)cn2)c2ccc(S(=O)(=O)C3CC3)c(C3CC3)c2)C1` [Example 99] it is 326%.
